Here are results for 4 compounds from ChEMBL document CHEMBL5321223, “Effects and mechanism of action of Chrysanthemum morifolium (Jinsi Huangju) on hyperlipidemia and non-alcoholic fatty liver disease” (Eur J Med Chem, 2023).

For series [1], the target named is T1, Pancreatic triacylglycerol lipase (Homo sapiens) (UniProt P16233).
T1 sequence (whole entry): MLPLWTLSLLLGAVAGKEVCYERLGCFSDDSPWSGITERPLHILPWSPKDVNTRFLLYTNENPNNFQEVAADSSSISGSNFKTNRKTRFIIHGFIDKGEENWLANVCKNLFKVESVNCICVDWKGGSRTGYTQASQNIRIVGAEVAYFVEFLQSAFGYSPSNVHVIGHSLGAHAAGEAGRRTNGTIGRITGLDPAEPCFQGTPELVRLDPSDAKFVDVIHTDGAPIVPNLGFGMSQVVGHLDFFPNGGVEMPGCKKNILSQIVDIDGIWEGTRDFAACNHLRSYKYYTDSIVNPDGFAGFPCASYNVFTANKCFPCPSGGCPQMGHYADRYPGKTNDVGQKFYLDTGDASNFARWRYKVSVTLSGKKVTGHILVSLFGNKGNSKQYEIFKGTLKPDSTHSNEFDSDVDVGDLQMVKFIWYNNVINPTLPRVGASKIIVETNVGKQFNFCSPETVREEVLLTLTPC
Description: Inhibition of Pancreatic lipase (unknown origin) using 4-methylumbelleallyl oleate as substrate at 50 uM by microplate reader assay.

Series [2] addresses T1, Pancreatic triacylglycerol lipase (Homo sapiens). Description: Inhibition of Pancreatic lipase (unknown origin) using 4-methylumbelleallyl oleate as substrate at 5 uM by microplate reader assay.
Series [3] has as its system HepG2. Description: Hypolipidemic activity in sodium oleate and sodium palmitate induced human HepG2 cells assessed as decrease in intracellular lipid content at 50 uM by Oil Red O staining based assay. Type of series: functional. The arrangement: scale not given: the % may be the effect or the level left.
The test system of series [4] is HepG2. Description: Cytotoxicity against human HepG2 cells assessed as reduction in cell survival at 50 uM. The note with it: hepg2, 50 µM. Format: toxicity, cell-based.
Series [5] relates to HepG2. Description: Hypolipidemic activity in sodium oleate and sodium palmitate induced human HepG2 cells assessed as decrease in intracellular lipid content at 5 uM by Oil Red O staining based assay. The arrangement: scale not given: the % may be the effect or the level left. Type of series: functional.
In series [6] the test system is HepG2. Description: Hypolipidemic activity in sodium oleate and sodium palmitate induced human HepG2 cells assessed as decrease in intracellular lipid content at 0.025 mg/ml by Oil Red O staining based assay. Format: functional. The arrangement: scale not given: the % may be the effect or the level left.

Broadly, the inhibition is the relative decrease from the control value, in per cent. Turning to `O=c1cc(-c2ccc(O)cc2)oc2cc(O[C@@H]3O[C@H](CO)[C@@H](O)[C@H](O)[C@H]3O)cc(O)c12` [APIGETRIN], the inhibition in series [1] turned out to be 59.1%; in series [2], 13.2%. In addition, the Activity is on record as 97.7% with HepG2 [3], “Non-Toxic” in the series on HepG2 [4] and 95.1% in the series with HepG2 [5].

For the compound `O=c1cc(-c2ccc(O)cc2)oc2cc(O)cc(O)c12` [APIGENIN], the inhibition in series [1] worked out at 56.3%; in series [2], 26.7%. Moreover, the Activity result in the series on HepG2 [4] is “Toxic”; in the series with HepG2 [5], 92.4%.

Turning to `CC[C@H](C)C(=O)O[C@H]1C[C@@H](C)C=C2C=C[C@H](C)[C@H](CC[C@@H]3C[C@@H](O)CC(=O)O3)[C@H]21` [LOVASTATIN], the Activity was determined as 89.3% in the series with HepG2 [3], 97% in the series on HepG2 [6] and 76.9% with HepG2 [5].

Consider `O=c1cc(-c2ccc(O)c(O)c2)oc2cc(O)cc(O)c12` [LUTEOLIN], for which the results for the inhibition in series [1] and in series [2] were 41.2% and 27.4%, respectively. Further, the Activity result with HepG2 [4] is “Toxic”; in the series with HepG2 [5], 91.6%.
